These results are taken from a melting point compilation (Tetko et al.; mined from patent text by program, amines drawn as free bases though some values may be those of a salt).

`Cc1ncc2n1-c1ccc(Cl)cc1C(c1ccccc1F)=NC2O` (stereo not drawn) gave a melting point of 185 to 186 °C.
`C[Si](C)(C)c1cccc2c1S(=O)c1c(cccc1[Si](C)(C)C)S2` gave a melting point of 210 to 211 °C.
`Cc1ccc(Cl)c2c1N(C1CC1)CNS2(=O)=O` came in with a melting point of 215 to 217 °C.
Molecule `N#Cc1ccc(NC(=O)c2cc3ccccc3cc2O)c(OC(F)(F)F)c1` gave a melting point of 248 °C.
`Cc1nnc2n1-c1ccccc1C(c1ccc(Cl)cc1)=NN2Cc1ccc(N)cc1` displayed a melting point of 234 to 237 °C.
Regarding `COc1ccc(NC2=NN(c3cccnc3)CC2)cc1`, the melting point fell in the range of 116 to 119 °C.
The result for `COC(=O)c1ccc(/C=C\c2ccc(C(=O)OC)cc2Cl)cc1` reads 134 to 135 °C.
As for `CC(=O)OCc1c(C(=O)C(=O)O)c2cc(-c3cccc(C)c3)ccc2n1Cc1ccc(C(C)(C)C)cc1`, the melting point lay within 91 to 92 °C.
In turn, `CN1C(=S)N(C)C2(c3ccccc3)CCCN12` (stereo not drawn) registered a melting point of 83 to 85 °C.
Molecule `CC(C)(C)OC(=O)NC(CC(=O)OCc1ccccc1)C(=O)C(C#N)=P(c1ccccc1)(c1ccccc1)c1ccccc1` (stereo not drawn) yielded a melting point of 42 to 44 °C.
`C=CC(=O)Nc1ccc2c(Nc3cccc(Cl)c3)ncnc2c1` displayed a melting point of 296 to 298 °C.
On to `NC(=O)NC1CCCCCC1`, for which the melting point is 203 to 204 °C.
As for `CC1(O)CCC2(C)C(CCC3C2CCC2(C)C(C(=O)COc4ccc([N+](=O)[O-])cc4)CCC32)C1` (stereo not drawn), the melting point fell in the range of 169 to 172 °C.
`COC(=O)c1ccc(C[C@@H]2COc3ccc(OCc4ccc5ccccc5n4)cc3[C@H]2O)cc1` (relative stereo) showed a melting point of 138 to 140 °C.
Molecule `CS(=O)(=O)Nn1c(=O)[nH]c2cc([N+](=O)[O-])c(-n3cnc(CO)c3)cc2c1=O` gave a melting point of over 300 °C.
For `Cc1cc(C(O)(c2ccc3c(cnn3-c3ccc(F)cc3)c2)C(F)(F)F)cn(C)c1=O` (stereo not drawn), the melting point is over 200 °C.
Take `COC(=O)C1=Cc2cc(-c3ccc(C(C)C)cc3)ccc2S(=O)(=O)CC1`: the melting point is 142 to 144 °C.
The molecule `Cn1c(-c2ccc(Br)cc2)cnc1[C@H](Cc1ccccn1)N(C=O)c1cc2cc(Cl)ccc2o1` had a melting point of 185 to 188 °C.
As for `COc1ccc(CCCC(=O)NC(NC(Cc2ccccc2C)=NC#N)C(C)(C)C)cc1` (stereo not drawn), the melting point lay within 171 to 172 °C.
For the molecule `CCCC[C@]1(CC)CS(=O)(=O)c2cc(O)c(OC)cc2[C@@H](c2ccccc2)N1`, the melting point lay in the range of 165 to 166 °C.
`CC(C#N)c1ccc(Cl)nn1` (stereo not drawn) gave a melting point of 65 °C.
As to `CCSN(C)C(=O)Nc1ccc(Br)cc1`, the melting point is under 50 °C.
Turning to `O=C(Nc1cccc(Br)c1)Oc1ccc2c(c1)CCCN2`, the melting point came to 198 °C.
The molecule `C[C@@H](n1cnc2cc(N(C)C)c(F)cc2c1=O)[C@](O)(Cn1cncn1)c1ccc(F)cc1F` registered a melting point of 197 to 198 °C.
The molecule `N#Cc1ccc2c(c1)C(=O)c1ccccc1OC2` registered a melting point of 116 to 127 °C.
`O=C1CC(CCc2ccccc2)Nc2ccccc2N1Cc1ccccc1` (stereo not drawn) came in with a melting point of 135 to 137 °C.
As for `Cc1cn(Nc2ccncc2F)c2ccccc12`, the melting point amounted to 45 °C.
The result for `OC1N=C(c2ccccc2F)c2cc(Cl)ccc2-c2ncncc21` (stereo not drawn) reads 186 to 188 °C.
In the case of `Cc1cccc(N2C(=O)NCc3cccnc32)c1`, the melting point was 212 to 214 °C.
The result for `CCCOC(OCCC)P(=O)(O)CCCN` reads 223 to 225 °C; that for `C=CCNCc1noc(-c2ncn3c2CN(C)C(=O)c2c(Cl)cccc2-3)n1`, 171 to 174 °C; that for `CCCCNc1ccc(CCNc2ncnc(CC)c2C(=O)OCC)cc1`, 65 to 66 °C.
`Nc1ccc2[nH]cc(C3=CCN4CCCC4C3)c2c1` (stereo not drawn) yielded a melting point of 208 to 210 °C.
In the case of `CCCCCCCCCCCCOC(=O)C(N)CCCNC(=N)N` (stereo not drawn), the melting point was in the range of 125 to 130 °C.
The molecule `COC(=O)c1ccc(-c2ccncc2)cc1` had a melting point of 99 to 101 °C.
For `COc1ccc(-c2sc(-c3ccccc3)cc2OC(C)=O)cc1`, the melting point was 81 to 82 °C.
With `Cc1ccc(OCCCCCCCCCCC(Cl)(Cl)C(=O)O)cc1`, the melting point fell in the range of 67 to 68 °C.
With `CNC(=O)C1=C(C(=O)Nc2cc(OC3CCCC3)c(Cl)cc2F)CCCC1`, the melting point was in the range of 179 to 180 °C.
Turning to `COC(=O)C(C#N)C(c1ccccc1OC)c1ccnc2ccccc12` (stereo not drawn), the melting point fell in the range of 169 to 171 °C.
Molecule `O=C(O)COc1ccc(NC(=O)c2csc(NC(=O)NCc3ccccc3)n2)cc1C(=O)O` displayed a melting point of 219 °C.
The result for `CN1C(=O)C(c2ccc(OC(F)F)cc2)(c2cccc(CCCCO)c2)N=C1N` (stereo not drawn) reads 63 to 66 °C.
The molecule `COC(=O)COc1ccccc1Oc1cc(NC(=O)CC(O)(O)C(F)(F)F)c(F)cc1Cl` yielded a melting point of 165 °C.
As for `COc1cc(SC(C)C)cc(C#N)c1N`, the figure is 81 to 82 °C; as for `O=C(O)Cc1ccc(OCc2ccccc2)c(OCCc2ccccc2)c1`, 110 to 112 °C; as for `OCC1OC(SCCCc2ccccc2)C(O)C(O)C1O` (stereo not drawn), 122 to 123 °C.
`CCOC(=O)C1CCc2c(c3ccccc3n2C(=O)c2ccccc2)C1` (stereo not drawn) returned a melting point of 67 to 69 °C.
The molecule `COc1ccc(F)c(F)c1C(=O)c1cnc(Cl)nc1Cl` registered a melting point of 137 to 139 °C.
`O=C(c1ccc2c(c1)sc(=O)n2CCOc1ccc(CC(OCC(F)(F)F)C(=O)O)cc1)C1CC1` (stereo not drawn) gave a melting point of 124 to 128 °C.
The molecule `COc1ccc2ccccc2c1C1CCN(CCCCNC(=O)c2ccc(-c3ccc(Cl)cc3)cc2)CC1` had a melting point of 149 °C.
Molecule `CCc1ccccc1N1CCN(C(=S)Nc2nc3ccccc3nc2OC)CC1` registered a melting point of 141 to 143 °C.
`O=C(CBr)Nc1ccc(F)cc1C(=O)c1ccccc1Br` displayed a melting point of 110 to 114 °C.
As to `CC1(Br)Cc2cc(C(=O)O)ccc2C1=O` (stereo not drawn), the melting point is 203 to 205 °C.
Regarding `CCOC(=O)COc1ccc(C(=O)Nc2ccccc2S(=O)(=O)c2ccccc2-c2nnn[nH]2)cc1`, the melting point was in the range of 162 to 163 °C.
In the case of `CN1CCCCC1CCc1ccccc1NC(=O)c1ccc(OC(C)(C)C)cc1` (stereo not drawn), the melting point lay in the range of 91 to 93.5 °C.
Consider `COc1c(CNS(=O)(=O)c2ccc(C)cc2)ccc2c1OCO2`, for which the melting point was 150 to 151 °C.
`CCCCCCCCCCCCCCCCC=Cc1ccc(O)c(C(=O)O)c1`: the melting point was 95 °C.
Molecule `CC(=O)OC1CSC(Oc2ccc(-c3c(C)noc3C)nc2)C(OC(C)=O)C1OC(C)=O` (stereo not drawn) registered a melting point of 172 °C.
`Cc1nnc2n1-c1sc(CCc3ccc(-c4ccccc4)cc3)cc1C(c1ccccc1Cl)=NC2` displayed a melting point of 163 to 165 °C.
On to `CCC(O)(c1ccc(OCc2cccc(C)n2)cc1)c1cc(C)ccc1C` (stereo not drawn), for which the melting point was in the range of 107 to 108 °C.
With `Cc1nc(C)c(CSC(=O)c2ccccc2)c(O)c1O`, the melting point fell in the range of 174 to 177 °C.
In turn, `Cc1ccc2c(c1)/C(=N\NC(N)=O)C(=O)N2CCN(C(C)C)C(C)C` returned a melting point of 159 to 161 °C.
Regarding `Cc1cccc(Nc2nncc3ccccc23)c1`, the melting point was 176 to 177 °C.
`COCc1cc(O)n2nc(SCc3ccccc3)nc2n1` had a melting point of 213 °C.
The molecule `O=S(=O)(NCC1CCCO1)c1ccc(Nc2nc(OCC3CCCCC3)c3nc[nH]c3n2)cc1` (stereo not drawn) came in with a melting point of 134 to 136 °C.
As for `Oc1ccc2cc(CNCc3ccccc3)ccc2c1`, the figure is 120 to 122 °C.
As for `NC1CN(c2c(F)cc3c(=O)c(C(=O)O)cn(C4CC4)c3c2F)CC12OCCO2` (stereo not drawn), the figure is 224 to 226 °C.
Turning to `Cc1cc(Cl)cc(C(=O)NC(C)C2CC2)c1NC(=O)c1cc(Br)nn1-c1ncccc1Cl` (stereo not drawn), the melting point was 182 to 183 °C.
As for `c1cc(-c2cc(C3CC3)on2)ccn1`, the figure is 76 to 80 °C.
Molecule `N#Cc1c(N2CCCCC2)cc(-c2cccc3ccccc23)c2c1-c1ccccc1C2` returned a melting point of 188 to 190 °C.
`CN1CCN(C2CCN(c3ccc(Nc4ncc5cc6ccccc6n5n4)cc3)CC2)CC1` displayed a melting point of 226 to 229 °C.
Regarding `Cc1c(NC(=O)CC(C)(C)C)cc2c(c1C)OC(C)(C)C2(O)c1ccc(C(C)C)cc1` (stereo not drawn), the melting point was 119 to 121 °C.
The molecule `Cn1ncnc1-c1oc2cccc(OCCc3ccc(F)cc3)c2c(=O)c1O` gave a melting point of 215 to 217 °C.
For the molecule `COc1cc(OC)c(NC(=O)[C@H]2[C@H](c3ccc(S(N)(=O)=O)cc3)C2(C)C)cc1Cl` (relative stereo), the melting point was 248 to 251 °C.
On to `Cc1nc(-c2ccc(CCN3CCN(c4cccc(C(F)(F)F)c4)CC3)cc2)cs1`, for which the melting point was 170 to 175 °C.
`CC(O)(CCO)c1ccc(Oc2ccccc2)cc1` (stereo not drawn): the melting point lay in the range of 74 to 75 °C.
In turn, `O=C(CCCN1CCCC(c2cccc(O)c2)C1)c1ccc(F)cc1` (stereo not drawn) yielded a melting point of 77 to 78 °C.
`Cc1ccc2c(n1)sc1c(S)nnnc12` displayed a melting point of 205 to 208 °C.
`CN(C)c1ccccc1SCC(N)=NO` came in with a melting point of 133 °C.
`O=C(C=Cc1ccc(CO)cc1)N1CCc2c([nH]c3ccccc23)C1c1ccc2c(c1)OCO2` (stereo not drawn) had a melting point of 206 °C.
`NCc1ccc2c(c1)ncn2-c1cccc(-c2cccnc2)c1` yielded a melting point of 107 to 110 °C.
`OCC1(c2ccccc2)CCCCC1` registered a melting point of 63 to 64 °C.
With `CCOC(=O)c1cnn2c(-c3cccc(C)c3)ccnc12`, the melting point lay in the range of 69 to 70 °C.
The result for `Cc1nc(N2CCN(c3ccccc3)C2=O)sc1C(=O)NCc1ccccc1` reads 234 to 236 °C.
`CCOC(=O)c1c(O)c2cc(Cl)ccc2c(=O)n1C` displayed a melting point of 110 to 111 °C.
With `Oc1ccc(Oc2cccc(C(F)(F)F)n2)cc1`, the melting point lay within 94 to 95 °C.
As for `C=Cc1c(C)c2cc3nc(c4c5[nH]c(cc6nc(cc1[nH]2)C(C)=C6CC)c(C)c5C(=O)C4)C(CCC(=O)OC)C3C` (stereo not drawn), the figure is 217 to 219 °C; as for `CCCCN(C(=O)N[C@@H](CC(=O)O)c1ccc2c(c1)OCO2)C1CC(=O)N(Cc2ccccc2)C1=O` (stereo partly drawn), 80 to 85 °C.
Take `COc1cc(C(C)C)c(NC(=O)CN2CCN(CCSc3nc4cccc([N+](=O)[O-])c4o3)CC2)c(C(C)C)c1`: the melting point is 165 to 166 °C.

Broadly, the melting point is the temperature, or range, at which the solid turns liquid.
